From US10166177B2, “Silk protein fragment compositions and articles manufactured therefrom” (Silk, Inc., priority 2013, dated 2019)

Columns and labels:
Assay type in all cases: physicochemical
[1] = Gel formation with vitamin C derivatives in 2% silk solution; details: 100 mg of vitamin C derivative in 15 mL of 2% silk solution
Procedure: The Tables in FIGS. 89A-89B summarize embodiments of gels of the present disclosure. Ascorbic acid-2-glucoside was the most successful vitamin C derivative at gel formation with gel being formed in a 2% silk solution in 3 days. […] In all cases 100 mg of vitamin C derivative was mixed in 15 mL of 2% silk solution, and all gels had the same appearance as gels created with ascorbic acid.
Gels were also cast with combinations of two vitamin C options. In each case, at least one of the vitamin C options was known to cause gelation (L-ascorbic acid or ascorbic acid-2-glucoside). All combination gels were able to gel at 1% total vitamin C additive concentration. […] Without wishing to be bound by theory, it appears there is a relationship between vitamin C concentration, silk concentration, and gelation. An increase in vitamin C at a given concentration of silk will result in a longer time to gelation or inhibit gelation. This may be due to the vitamin C molecule physically blocking interaction between silk protein fragments or cross-linking of silk protein. Modification to pH may allow additional concentrations of vitamin C and derivatives thereof to be added.

[2] = Dissolution of vitamin C derivative in aqueous silk solution
Excerpt: Ascorbyl tetraisopalmitate is a highly viscous, oil soluble liquid that might need the help of an emulsifier to possible dissolve in aqueous silk solution.

[3] = HPLC chromatograms of vitamin C samples (degradation products); details: after 1 hour at ambient conditions without chemical stabilization
Procedure: FIGS. 36A and 36B show HPLC chromatograms from samples comprising vitamin C. […] No degradation products were visible.
FIGS. 36A and 36B show two HPLC chromatograms from samples comprising vitamin C. […] No degradation products were visible. FIG. 59 is a table summarizing the vitamin C concentration in silk protein fragment-films (2% silk films air dried at RT) of the present disclosure. In FIG. 59 processing conditions included 100° C. extraction for 20 min, RT rinse, LiBr in 60° C. oven for 4-6 hours. FIG. 60 is a table summarizing the stability of vitamin C in chemically stabilized solutions. FIGS. 89A-89B are tables summarizing vitamin C stability in SPF gels without chemical stabilizers as compared to chemically stabilized vitamin C in competitive anti-aging skincare products. […] Without wishing to be bound by theory, it appears there is a relationship between vitamin C concentration, silk concentration, and gelation. An increase in vitamin C at a given concentration of silk will result in a longer time to gelation or inhibit gelation. This may be due to the vitamin C molecule physically blocking interaction between silk protein fragments or cross-linking of silk protein.

| time to gel formation [1] | SMILES | other results |
| --- | --- | --- |
| 3 days | O=C1O[C@H]([C@@H](O)CO)C(O)=C1O[C@H]1O[C@H](CO)[C@@H](O)[C@H](O)[C@H]1O [Ascorbic acid-2-glucoside] | – |
| 28 days | O=C1O[C@H]([C@@H](O)CO)C([O-])=C1OP(=O)([O-])[O-].[Na+].[Na+].[Na+] [Sodium ascorbyl phosphate from DSM, Sodium ascorbyl phosphate] | – |

More lines, now with the values behind:

| SMILES | time to gel formation [1] | other results |
| --- | --- | --- |
| CCCCCCCCC(CCCCCC)C(=O)OC[C@H](OC(=O)C(CCCCCC)CCCCCCCC)[C@H]1OC(=O)C(OC(=O)C(CCCCCC)CCCCCCCC)=C1OC(=O)C(CCCCCC)CCCCCCCC (some centres unmarked) [Ascorbyl tetraisopalmitate] | – | ability to dissolve or be dispersed in aqueous silk solution [2]: unable to dissolve or be dispersed |
| O=C1O[C@H]([C@@H](O)CO)C([O-])=C1OP(=O)([O-])[O-].[Na+].[Na+].[Na+] [Sodium Ascorbyl Phosphate (Aromantic), Sodium Ascorbyl Phosphate] | failed to create a gel | – |
| O=C1O[C@H]([C@@H](O)CO)C(O)=C1O [vitamin C, L-ascorbic acid] | – | vitamin C degradation products (HPLC) [3]: degradation products are visible |
